Species: Rattus norvegicus
Experiment: Open TG-GATES - Regimen: Single
Type: toxicity, organism-based, Sprague-Dawley
Set-up: regimen Single, gender Male, age 6 weeks
Conditions: in vivo, po, 100 mg/kg, route gavage, dose level Low; for APTT / Bas / Eos / Fbg / Hb / Ht / Lym / MCH / MCHC / MCV / Mono / Neu / PT / Plat / RBC / Ret / WBC: tissue Blood; for KIDNEY_L / KIDNEY_R / KIDNEY_TOTAL: tissue Kidney; for LIVER: tissue Liver; for A/G / ALP / ALT / AST / BUN / CRE / Ca / Cl / DBIL / GLC / IP / K / LDH / Na / PL / RALB / TBIL / TC / TG / TP / gamma-GTP: tissue Plasma

SMILES: COc1ccc(Cl)cc1C(=O)NCCc1ccc(S(=O)(=O)NC(=O)NC2CCCCC2)cc1 [GLYBURIDE]
- TERMINAL_BW (3 h): 218.6 g
- APTT (3 h): 19.3 s
- Bas (3 h): 0%
- Eos (3 h): 1%
- Fbg (3 h): 215.8 mg/dL
- Hb (3 h): 13.2 g/dL
- Ht (3 h): 41%
- Lym (3 h): 69.8%
- MCH (3 h): 20.2 pg
- MCHC (3 h): 32.3%
- MCV (3 h): 62.6 fL
- Mono (3 h): 2.8%
- Neu (3 h): 25.4%
- PT (3 h): 12.3 s
- Plat (3 h): 125.3 x10_4/uL
- RBC (3 h): 654.4 x10_4/ul
- Ret (3 h): 8.1%
- WBC (3 h): 93.1 x10_2/uL
- KIDNEY_L (3 h): 0.9 g
- KIDNEY_R (3 h): 1 g
- KIDNEY_TOTAL (3 h): 1.9 g
- LIVER (3 h): 9.7 g
- A/G (3 h): 1.6
- ALP (3 h): 990.2 IU/L
- ALT (3 h): 44.4 IU/L
- AST (3 h): 69.4 IU/L
- BUN (3 h): 12.8 mg/dL
- CRE (3 h): 0.4 mg/dL
- Ca (3 h): 10.7 mg/dL
- Cl (3 h): 103 meq/L
- DBIL (3 h): 0.1 mg/dL
- GLC (3 h): 141 mg/dL
- IP (3 h): 8.2 mg/dL
- K (3 h): 3.7 meq/L
- LDH (3 h): 145.6 IU/L
- Na (3 h): 140.8 meq/L
- PL (3 h): 174.8 mg/dL
- RALB (3 h): 3.5 g/dL
- TBIL (3 h): 0.2 mg/dL
- TC (3 h): 89.8 mg/dL
- TG (3 h): 87 mg/dL
- TP (3 h): 5.7 g/dL
- gamma-GTP (3 h): 1.4 IU/L
- TERMINAL_BW (6 h): 214.4 g
- APTT (6 h): 19.6 s
- Bas (6 h): 0%
- Eos (6 h): 0.8%
- Fbg (6 h): 222.6 mg/dL
- Hb (6 h): 13.9 g/dL
- Ht (6 h): 42.5%
- Lym (6 h): 76.2%
- MCH (6 h): 20.6 pg
- MCHC (6 h): 32.6%
- MCV (6 h): 63.3 fL
- Mono (6 h): 2.8%
- Neu (6 h): 18.8%
- PT (6 h): 12.7 s
- Plat (6 h): 118.8 x10_4/uL
- RBC (6 h): 671.8 x10_4/ul
- Ret (6 h): 7.8%
- WBC (6 h): 101.9 x10_2/uL
- KIDNEY_L (6 h): 0.9 g
- KIDNEY_R (6 h): 0.9 g
- KIDNEY_TOTAL (6 h): 1.8 g
- LIVER (6 h): 9.3 g
- A/G (6 h): 1.7
- ALP (6 h): 837 IU/L
- ALT (6 h): 40.2 IU/L
- AST (6 h): 67.4 IU/L
- BUN (6 h): 13 mg/dL
- CRE (6 h): 0.4 mg/dL
- Ca (6 h): 10.7 mg/dL
- Cl (6 h): 104.4 meq/L
- DBIL (6 h): 0.098 mg/dL
- GLC (6 h): 168.6 mg/dL
- IP (6 h): 8.6 mg/dL
- K (6 h): 3.8 meq/L
- LDH (6 h): 136 IU/L
- Na (6 h): 141.8 meq/L
- PL (6 h): 145.2 mg/dL
- RALB (6 h): 3.5 g/dL
- TBIL (6 h): 0.2 mg/dL
- TC (6 h): 72.2 mg/dL
- TG (6 h): 64.8 mg/dL
- TP (6 h): 5.6 g/dL
- gamma-GTP (6 h): 1.2 IU/L
- TERMINAL_BW (9 h): 211.4 g
- APTT (9 h): 19.7 s
- Bas (9 h): 0%
- Eos (9 h): 1%
- Fbg (9 h): 223.4 mg/dL
- Hb (9 h): 13.4 g/dL
- Ht (9 h): 41.4%
- Lym (9 h): 79.8%
- MCH (9 h): 20.5 pg
- MCHC (9 h): 32.5%
- MCV (9 h): 63.2 fL
- Mono (9 h): 3%
- Neu (9 h): 15.6%
- PT (9 h): 12.9 s
- Plat (9 h): 122.6 x10_4/uL
- RBC (9 h): 654.8 x10_4/ul
- Ret (9 h): 8.2%
- WBC (9 h): 77.5 x10_2/uL
- KIDNEY_L (9 h): 0.9 g
- KIDNEY_R (9 h): 0.9 g
- KIDNEY_TOTAL (9 h): 1.9 g
- LIVER (9 h): 8.7 g
- A/G (9 h): 1.6
- ALP (9 h): 982.4 IU/L
- ALT (9 h): 30.2 IU/L
- AST (9 h): 69.2 IU/L
- BUN (9 h): 12.4 mg/dL
- CRE (9 h): 0.4 mg/dL
- Ca (9 h): 10.3 mg/dL
- Cl (9 h): 104.2 meq/L
- DBIL (9 h): 0.084 mg/dL
- GLC (9 h): 153.8 mg/dL
- IP (9 h): 10.4 mg/dL
- K (9 h): 3.4 meq/L
- LDH (9 h): 136.6 IU/L
- Na (9 h): 142.4 meq/L
- PL (9 h): 143 mg/dL
- RALB (9 h): 3.4 g/dL
- TBIL (9 h): 0.1 mg/dL
- TC (9 h): 79.6 mg/dL
- TG (9 h): 42 mg/dL
- TP (9 h): 5.6 g/dL
- gamma-GTP (9 h): 1 IU/L
- TERMINAL_BW (24 h): 227.7 g
- APTT (24 h): 18.4 s
- Bas (24 h): 0.4%
- Eos (24 h): 1%
- Fbg (24 h): 211.8 mg/dL
- Hb (24 h): 13 g/dL
- Ht (24 h): 37.6%
- Lym (24 h): 76.8%
- MCH (24 h): 21.7 pg
- MCHC (24 h): 34.5%
- MCV (24 h): 62.9 fL
- Mono (24 h): 3.2%
- Neu (24 h): 18.8%
- PT (24 h): 13.1 s
- Plat (24 h): 119.3 x10_4/uL
- RBC (24 h): 599 x10_4/ul
- Ret (24 h): 7.1%
- WBC (24 h): 83.2 x10_2/uL
- KIDNEY_L (24 h): 1 g
- KIDNEY_R (24 h): 0.9 g
- KIDNEY_TOTAL (24 h): 1.9 g
- LIVER (24 h): 9.5 g
- A/G (24 h): 1.7
- ALP (24 h): 950.8 IU/L
- ALT (24 h): 35.4 IU/L
- AST (24 h): 68.4 IU/L
- BUN (24 h): 14.6 mg/dL
- CRE (24 h): 0.4 mg/dL
- Ca (24 h): 10.7 mg/dL
- Cl (24 h): 103.4 meq/L
- DBIL (24 h): 0.09 mg/dL
- GLC (24 h): 212.4 mg/dL
- IP (24 h): 7.9 mg/dL
- K (24 h): 3.5 meq/L
- LDH (24 h): 174.2 IU/L
- Na (24 h): 142.2 meq/L
- PL (24 h): 136 mg/dL
- RALB (24 h): 3.4 g/dL
- TBIL (24 h): 0.1 mg/dL
- TC (24 h): 72.2 mg/dL
- TG (24 h): 67.4 mg/dL
- TP (24 h): 5.4 g/dL
- gamma-GTP (24 h): 1.4 IU/L

— ChEMBL document CHEMBL3885861, “Open TG-GATES”
